SMILES strings stand for the structures.

For orientation: IC50 means the concentration needed to halve the response being measured.

The experiment addresses T1, human recombinant USP30 (Homo sapiens, UniProt Q70CQ3).
T1 construct: purchased Boston Biochem E-582
T1 sequence (Q70CQ3 1-517): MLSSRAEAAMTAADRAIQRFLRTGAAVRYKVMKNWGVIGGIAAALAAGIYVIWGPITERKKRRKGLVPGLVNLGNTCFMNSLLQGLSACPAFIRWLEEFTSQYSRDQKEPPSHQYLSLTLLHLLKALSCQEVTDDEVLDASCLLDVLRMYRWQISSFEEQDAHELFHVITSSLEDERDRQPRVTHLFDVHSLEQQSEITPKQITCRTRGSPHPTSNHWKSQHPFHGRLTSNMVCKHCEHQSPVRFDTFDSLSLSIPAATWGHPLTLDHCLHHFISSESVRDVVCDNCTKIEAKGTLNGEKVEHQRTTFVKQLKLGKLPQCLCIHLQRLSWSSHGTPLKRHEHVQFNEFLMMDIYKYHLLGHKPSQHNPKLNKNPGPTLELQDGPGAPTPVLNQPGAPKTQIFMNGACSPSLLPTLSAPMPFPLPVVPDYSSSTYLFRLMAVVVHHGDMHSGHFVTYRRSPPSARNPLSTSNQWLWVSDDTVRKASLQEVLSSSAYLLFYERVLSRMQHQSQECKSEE
The experiment can be described thus: Ubiquitin-Rhodamine 110 Assay for USP30 Activity (USP30 biochemical assay). To be noted: IC50 ranges; 0.4 nM enzyme, 25 nM Ub-Rh110, 30 min preincubation, test concentration 25 μM to 1.3 nM. The protocol:
Assay Example A: Description of Biochemical Assay: Ubiquitin-Rhodamine 110 Assay for USP30 Activity
The assay was performed in a final volume of 6 μL in assay buffer containing 20 mM Tris-HCl (pH 8.0, (1M Tris-HCl, pH 8.0 solution; Corning 46-031-CM)), 1 mM GSH (L-glutathione reduced, Sigma-Aldrich, G4251-100G), 0.03% BGG ([…], Sigma, G7516-25G), and 0.01% Triton X-100 (Sigma, T9284-10L). Nanoliter quantities of 10-point, 3-fold serial dilution in DMSO were pre-dispensed into 1536 assay plates (Corning, #3724BC) for a final test concentration of 25 μM to 1.3 nM, top to lowest dose, respectively. Concentration and incubation times were optimized for the maximal signal-to-background while maintaining initial velocity conditions at a fixed substrate concentration (<<Km). The final concentration of enzyme (human recombinant USP30, Boston Biochem, cat. #E-582) in the assay was 0.4 nM. Final substrate (Ub-R^h110; Ubiquitin-Rhodamine 110, UbiQ-126) concentration was 25 nM. 3 μL of 2× enzyme was added to assay plates (pre-stamped with compound), preincubated for 30 minutes and then treated with 3 μL of 2× substrate. Plates were read for fluorescence on the Envision (Perkin Elmer) or PheraSTAR (BMG) (excitation at 485 nm and emission at 535 nm) 5 times over the course of 11 minutes and the slope of this kinetic read used to normalize the raw data.
For all assay formats, data were reported as percent inhibition compared with control wells based on the following equation: % inh=1−((FLU−AveLow)/(AveHigh−AveLow)) where FLU=measured Fluorescence, AveLow=average Fluorescence of no enzyme control (n=32), and AveHigh=average Fluorescence of DMSO control (n=32). IC50 values were determined by curve fitting of the standard 4 parameter logistic fitting algorithm included in the Activity Base software package: IDBS XE Designer Model205. Data are fitted using the Levenburg Marquardt algorithm.

As for `N#CN1CCN2CCN(c3ncc(-c4ccccc4Oc4ccccc4)s3)C(=O)C2C1` (stereo in doubt) [Compound 1-113R, (R)-9-oxo-8-(5-(2-phenoxyphenyl)thiazol-2-yl)octahydro-2H-pyrazino[1,2-a]pyrazine-2-carbonitrile], the 50% inhibitory concentration (IC50) is less than 0.1 µM. In the case of `N#CN1CCN2CCN(c3ncc(-c4ccccc4Oc4ccccc4)s3)C(=O)C2C1` (stereo in doubt) [Compound 1-113S, (S)-9-oxo-8-(5-(2-phenoxyphenyl)thiazol-2-yl)octahydro-2H-pyrazino[1,2-a]pyrazine-2-carbonitrile], the IC50 is less than 0.1 µM.

The record behind these values is US12049466B2, “Fused bicyclic compounds useful as ubiquitin-specific peptidase 30 inhibitors” (FORMA Therapeutics, Inc., priority 2018, dated 2024).
